Data as given in patent publication US20140051576A1, “ACTIVE COMPOUND COMBINATIONS COMPRISING A (THIO)CARBOXAMIDE DERIVATIVE AND AN INSECTICIDAL OR ACARICIDAL OR NEMATICIDAL ACTIVE COMPOUND” (priority 2011, published 2014).
Like-named read-outs stand apart in the source and are kept apart here.

Experiments:
Spodoptera frugiperda = assay: whole plant or invertebrate
Method: Spodoptera frugiperda—Test (SPODFR Spray Application)
Solvent: 78.0 parts by weight acetone • 1.5 parts by weight N,N-dimethylformamide Emulsifier: 0.5 parts by weight alkylarylpolyglycolether
Maize (Zea mais) leaf sections are sprayed with a preparation of the active ingredient of the desired concentration. Once dry, the leaf sections are infested with larvae of the fall armyworm (Spodoptera frugiperda).
After the specified period of time, the mortality in % is determined. 100% means that all caterpillars have been killed and 0% means that none of the caterpillars have been killed.

Tetranychus urticae = Tetranychus urticae - Test; OP-resistant (TETRUR spray application); assay type: in vivo; settings: for Mortality in % after 6 days obs.: single active ingredient; for mortality at 4 g/ha: 144 h, read-out: Mortality in % after 6 days obs.
Description: Tetranychus urticae—Test; OP-Resistant (TETRUR Spray Application)
French beans (Phaseolus vulgaris) which are heavily infested with all stages of the two spotted spidermite (Tetranychus urticae), are sprayed with a preparation of the active ingredient at the desired concentration.

Phaedon cochleariae = Phaedon cochleariae Larvae - Test (PHAECO spray application); assay type: in vivo
Description: Phaedon cochleariae—Test; (PHAECO Spray Application)
Solvent: 78 parts by weight of acetone • 1.5 parts by weight of N,N-dimethylformamide Emulsifier: 0.5 parts by weight of alkylarylpolyglycolether
Once dry, the leaf discs are infested with mustard beetle larvae (Phaedon cochleariae).

Myzus persicae = Myzus persicae - Test (MYZUPE spray application); assay type: in vivo; settings: for mortality at 0.8 g/ha / mortality at 4 g/ha: Myzus persicae
Description: Myzus persicae—Test; (MYZUPE Spray Application)
Chinese cabbage (Brassica pekinesis) leaf—disks infected with all instars of the green peach aphid (Myzus persicae), are sprayed with a preparation of the active ingredient at the desired concentration.
100% means that all aphids have been killed; 0% means that none of the aphids have been killed.

[1] = 24 h, read-out: Mortality in % after 1 day obs.
[2] = Phaedon cochleariae, 144 h, read-out: Mortality in % after 6 days obs.

Compound: Methiocarb [B-1A15]
- Mortality in % after 2 days obs. (Spodoptera frugiperda; 500 g/ha): 0%
- Mortality in % after 6 days obs. (Spodoptera frugiperda; 500 g/ha): 33%
- Mortality in % after 6 days obs. (Tetranychus urticae; 100 g/ha): 10%
- Mortality in % after 2 days obs. (Tetranychus urticae; 500 g/ha): 0%
- Mortality in % after 6 days obs. (Phaedon cochleariae; 20 g/ha): 33%

Compound: CNC(=O)c1cc(Cl)cc(C)c1NC(=O)c1cc(Br)nn1-c1ncccc1Cl [B-26.1, Chlorantraniliprole (Rynaxypyr)]
- Mortality in % after 6 days obs. (Myzus persicae; 0.8 g/ha): 0%
- Mortality in % after 6 days obs. (Phaedon cochleariae; 0.8 g/ha): 33%
- Mortality in % after 2 days obs. (Phaedon cochleariae; 4 g/ha): 50%
- Mortality in % after 6 days obs. (Phaedon cochleariae; 4 g/ha): 33%

Compound: Flubendiamide [B-26.3]
- Mortality in % after 2 days obs. (Spodoptera frugiperda; 100 g/ha): 67%
- Mortality in % after 6 days obs. (Tetranychus urticae; 100 g/ha): 0%
- Mortality in % after 6 days obs. (Phaedon cochleariae; 4 g/ha): 0%
- Mortality in % after 6 days obs. (Phaedon cochleariae; 20 g/ha): 50%

Compound: CC1(C)[C@H](/C=C(\Cl)C(F)(F)F)[C@@H]1C(=O)O[C@@H](C#N)c1cccc(Oc2ccccc2)c1 [B-3A.12, L-Cyhalothrin]
- Mortality in % after 6 days obs. (Spodoptera frugiperda; 0.8 g/ha): 83%
- Mortality in % after 2 days obs. (Tetranychus urticae; 0.16 g/ha): 0%
- Mortality in % after 2 days obs. (Tetranychus urticae; 0.8 g/ha): 70%
- Mortality in % after 6 days obs. (Tetranychus urticae; 0.8 g/ha): 70%
- Mortality in % after 2 days obs. (Phaedon cochleariae; 0.8 g/ha): 67%

Compound: CNC(=O)O/N=C/C(C)(C)SC [B-1A.2, Aldicarb]
- Mortality in % after 6 days obs. (Myzus persicae; 20 g/ha): 80%
- Mortality in % after 1 day obs. (Myzus persicae; 100 g/ha): 0%
- Mortality in % after 2 days obs. (Spodoptera frugiperda; 100 g/ha): 0%
- Mortality in % after 6 days obs. (Spodoptera frugiperda; 100 g/ha): 33%
- Mortality in % after 6 days obs. (Phaedon cochleariae; 100 g/ha): 0%

Compound: Spinosad [B-5.2]
- Mortality in % after 2 days obs. (Spodoptera frugiperda; 0.16 g/ha): 0%
- Mortality in % after 2 days obs. (Tetranychus urticae; 0.8 g/ha): 0%
- Mortality in % after 6 days obs. (Tetranychus urticae; 0.8 g/ha): 0%
- Mortality in % after 2 days obs. (Tetranychus urticae; 4 g/ha): 0%
- Mortality in % after 2 days obs. (Tetranychus urticae; 20 g/ha): 0%
- Mortality in % after 6 days obs. (Phaedon cochleariae; 0.8 g/ha): 0%
- Mortality in % after 6 days obs. (Phaedon cochleariae; 4 g/ha): 0%
- Mortality in % after 2 days obs. (Phaedon cochleariae; 20 g/ha): 50%

Compound: Imidacloprid [B-4A.4]
- Mortality in % after 1 day obs. (Myzus persicae; 0.8 g/ha): 0%
- Mortality in % after 1 day obs. (Myzus persicae; 4 g/ha): 70%
- Mortality in % after 1 day obs. (Myzus persicae; 20 g/ha): 80%
- Mortality in % after 6 days obs. (Tetranychus urticae; 4 g/ha): 0%
- Mortality in % after 6 days obs. (Phaedon cochleariae; 100 g/ha): 67%

Compound: CC(c1ccc(C(F)(F)F)nc1)S(C)(=O)=NC#N (centres unmarked) [B-27.27, Sulfoxaflor]
- mortality at 0.8 g/ha (Myzus persicae; [1]): 0%
- mortality at 4 g/ha (Myzus persicae; [1]): 0%
- mortality at 4 g/ha (Tetranychus urticae; Tetranychus urticae): 0%
- mortality at 4 g/ha (Phaedon cochleariae; [2]): 33%

Compound: Abamectin [B-6.1]
- Mortality in % after 2 days obs. (Tetranychus urticae; 0.8 g/ha): 70%
- Mortality in % after 6 days obs. (Phaedon cochleariae; 0.16 g/ha): 33%

Compound: N#CCNC(=O)c1cnccc1C(F)(F)F [B-9.2, Flonicamid]
- Mortality in % after 1 day obs. (Myzus persicae; 20 g/ha): 0%
- Mortality in % after 6 days obs. (Myzus persicae; 20 g/ha): 80%
- Mortality in % after 6 days obs. (Tetranychus urticae; 100 g/ha): 0%
- Mortality in % after 6 days obs. (Phaedon cochleariae; 20 g/ha): 0%

Compound: Ethiprole [B-2B.1]
- Mortality in % after 6 days obs. (Myzus persicae; 100 g/ha): 0%

Compound: CN1COCN(Cc2cnc(Cl)s2)/C1=N\[N+](=O)[O-] [B-4A.7, Thiamethoxam]
- mortality at 4 g/ha (Myzus persicae; [1]): 0%
- mortality at 0.8 g/ha (Myzus persicae; 144 h, read-out: Mortality in % after 6 days obs.): 70%
- mortality at 20 g/ha (Tetranychus urticae; Tetranychus urticae, 48 h, read-out: Mortality in % after 2 days obs.): 0%
- mortality at 4 g/ha (Tetranychus urticae; Tetranychus urticae): 0%
- mortality at 0.8 g/ha (Phaedon cochleariae; [2]): 0%

Compound: Thiacloprid [B-4A.6]
- Mortality in % after 6 days obs. (Myzus persicae; 0.16 g/ha): 0%
- Mortality in % after 1 day obs. (Myzus persicae; 0.8 g/ha): 70%
- Mortality in % after 6 days obs. (Myzus persicae; 4 g/ha): 0%
- Mortality in % after 6 days obs. (Tetranychus urticae; 4 g/ha): 0%
- Mortality in % after 2 days obs. (Tetranychus urticae; 100 g/ha): 0%
- Mortality in % after 6 days obs. (Phaedon cochleariae; 20 g/ha): 83%
- Mortality in % after 2 days obs. (Phaedon cochleariae; 100 g/ha): 0%
